# “And” between values parts separate entries of the source, which are not always exact repeats. Equal entries are not always repeated.
# Legend:
# Assay type in all cases: cell-based, human
# [1] = test system: MLL leukemia cells (MV4;11, MOLM13, KOPN8, RS4;11); assay: MTT cell viability assay, MLL leukemia cells as a group; details: Homo sapiens, MLL leukemia cells
# Experimental: (§1) Human leukemia cells K562, MV4;11 and RS4;11 (purchased from ATCC) and KOPN8, MOLM13 (purchased from DSMZ) were cultured in RPMI 1640 (Invitrogen) supplemented with 10% heat inactivated (h.i.) FBS and 1% penicillin/streptomycin (Invitrogen). SET2 cells (purchased from DSMZ) were cultured in RPMI 1640 supplemented with 20% h.i. FBS and 1% penicillin/streptomycin. Cells were plated at 1 × 10^5 to 2 × 10^5 cells/mL depending on cell line and treated with 0.25% DMSO or varying concentrations of compounds and incubated at 37 °C, 5% CO2 incubator for 7 days. Media was changed on day 3 or 4 and compounds were resupplied. […] Cell suspensions (100 μL) were transferred to the 96-well plates for each sample in quadruplicate at the time of media change. At day 7, 10 µL of MTT reagent (M6494, Molecular Probes™) was added to each well of the 96 well plate and incubated at 37 °C for 4 h. The formazan was then solubilized by adding 100 µL acidified 10% SDS solution and incubated at 37 °C overnight. Plates were read for absorbance at 570 nm using a PHERAstar BMG microplate reader. The experiments were performed two times in quadruplicates with calculation of mean and SD for each condition. Data were analyzed in Prism 8.0.0 to obtain GI50 values.
# Supplementary Figure 4. Cell viability assay for AS-6 in MLL leukemia cell lines. Titration curves from the MTT cell viability assay performed after 7 days of treatment of human MLL1- […]
# replicates. Representative graphs are shown from two independent MTT experiments performed […]
# (§2) Supplementary Figure 7. […] (a)
# Titration curves from the MTT cell viability assay performed after 4, 7, and 11 (or 10) days of […]
# Titration curves from the MTT cell viability assay performed after 7 days of treatment of KOPN8 , MOLM13 and MV4;11 cell lines harboring MLL1 translocation (MLL1-r) or K562 cell line (non- […]
# Representative graphs are shown from two independent MTT experiments performed for each cell line. GI50 values correspond to […]
# [2] = test system: MLL fusion target genes in MOLM13 cells; assay: Real time qRT-PCR gene expression; parameters: key to MEIS1 expression / FLT3 expression / HOXA9 expression / MNDA expression / MEF2C expression / DLX2 expression: fold change vs DMSO-treated cells, normalized to HPRT1 (comparative Ct); details: for DLX2 expression / FLT3 expression / HOXA9 expression / MEF2C expression / MEIS1 expression / MNDA expression: MOLM13, 7 days, normalized to HPRT1, referenced to DMSO
# Experimental: 0.5 × 10^6 – 3 × 10^6 cells from each sample were collected at days 7 or 8 of treatment, centrifuged at 211 xg, and RNA was extracted according to the RNeasy Mini Kit protocol (74106, Qiagen). Extracted RNA was quantified using Nanodrop 2000 UV-Vis spectrophotometer and 0.5–1 µg of total RNA was reverse transcribed into cDNA using High-Capacity cDNA Reverse Transcription Kit (4368814, Applied Biosystems™) according to the manufacturer’s protocol. Real-time PCR was performed using the CFX96 Touch Real-Time PCR Detection System (Bio-Rad). TaqMan Gene Expression Master Mix and TaqMan Gene Expression Assays were purchased from Applied Biosystems. Relative quantification of each gene transcript was carried out using the comparative Ct method as described in the Applied Biosystems User Bulletin no. 2. TaqMan Gene Expression Assays were used: HPRT1: Hs02800695_m1, DLX2: Hs00269993_m1, FLT3: Hs00174690_m1, HOXA9: Hs00365956_m1, MEF2C: Hs00231149_m1, MEIS1: Hs00180020_m1, MNDA: Hs00935905_m1.
# Supplementary Figure 10. Effect of AS-nc on gene expression in MLL leukemia cells. (a, b) Quantitative RT-PCR performed in MOLM13 cells (a) or MV4;11 cells (b) after 7 days of treatment with AS-nc. Gene expression was normalized to HPRT1 and referenced to the DMSO treated cells. Representative data from two independent experiments, each performed in triplicates, […]
# RS4;11 cells = assay: MTT cell viability assay; details: 7 days
# Experimental: as §1
# SET2 cells = assay: MTT cell viability assay
# Experimental: as §1
# KOPN8 cells [3] = assay: MTT cell viability assay; details: MTT, 7 days
# Experimental: as §1, §2
# (§3) Titration curves from the MTT cell viability assay performed after 4, 7, and 11 (or 10) days of
# (§4) Titration curves from the MTT cell viability assay performed after 7 days of treatment of KOPN8 ,
# (§5) MOLM13 and MV4;11 cell lines harboring MLL1 translocation (MLL1-r) or K562 cell line (non-
# (§6) Representative graphs are shown
# (§7) from two independent MTT experiments performed for each cell line. GI50 values correspond to […]
# K562 cells = assay: MTT cell viability assay
# Experimental: as §1, §2, §3, §4, §5, §6, §7
# KOPN8 cells [4] = assay: Annexin V apoptosis assay (flow cytometry); details: 7 days
# [5] = MTT, 7 days, log[compound] -4.92082
# [6] = MTT, 7 days, log[compound] -5.22185
# [7] = MTT, 7 days, log[compound] -5.52288
# [8] = MTT, 7 days, log[compound] -5.82391
# [9] = MTT, 7 days, log[compound] -6.12494
# [10] = MTT, 7 days, log[compound] -6.42597
# [11] = MTT, 7 days, log[compound] -6.727
# [12] = leukemia cells without MLL1 translocations
smiles,measurement,setting,value
CN1CC(C(=O)NCc2ccc3c(-c4cccc(C(N)=S)c4)cn(C4CCN(S(=O)(=O)C(F)(F)F)CC4)c3c2)C1 [AS-99],GI50,[1],1.8 to 3.6 µM
same,DLX2 expression,[2]; 2 uM,0.56 and 0.75 and 0.61
same,FLT3 expression,[2]; 2 uM,0.69 and 0.97 and 0.78
same,HOXA9 expression,[2]; 2 uM,0.72 and 0.91 and 0.9
same,MEF2C expression,[2]; 2 uM,0.67 and 0.89 and 0.83
same,MEIS1 expression,[2]; 2 uM,0.79 and 0.98 and 0.9
same,MNDA expression,[2]; 2 uM,1.83 and 1.84 and 1.74
same,DLX2 expression,[2]; 4 uM,0.44 and 0.5 and 0.58
same,FLT3 expression,[2]; 4 uM,0.67 and 0.76 and 0.61
same,HOXA9 expression,[2]; 4 uM,0.76 and 0.94 and 0.79
same,MEF2C expression,[2]; 4 uM,0.59 and 0.77 and 0.68
same,MEIS1 expression,[2]; 4 uM,0.89 and 0.77 and 0.75
same,MNDA expression,[2]; 4 uM,2.92 and 2.39 and 3.74
same,DLX2 expression,[2]; 6 uM,0.53 and 0.54 and 0.7
same,FLT3 expression,[2]; 6 uM,0.53 and 0.65 and 0.5
same,HOXA9 expression,[2]; 6 uM,0.69 and 0.9 and 0.7
same,MEF2C expression,[2]; 6 uM,0.48 and 0.65 and 0.64
same,MEIS1 expression,[2]; 6 uM,0.71 and 0.74 and 0.69
same,MNDA expression,[2]; 6 uM,3.99 and 3.93 and 2.86
same,expression level of the MNDA differentiation marker,[2]; MOLM13 and MV4;11,substantial increase
same,"expression of MLL fusion target genes (MEF2C, DLX2, FLT3, HOXA9)",[2]; MOLM13 and MV4;11,dose-dependent downregulation
same,% activity RS4;11,RS4;11 cells; log[compound] -4.92082,2.655% and 2.343% and 2.187%
same,% activity RS4;11,RS4;11 cells; log[compound] -5.22185,2.03% and 1.718% and 1.874% and 2.655%
same,% activity RS4;11,RS4;11 cells; log[compound] -5.52288,64.3499% and 67.786% and 71.3784%
same,% activity RS4;11,RS4;11 cells; log[compound] -5.82391,99.4924% and 89.8087% and 86.9973% and 90.4334%
same,% activity RS4;11,RS4;11 cells; log[compound] -6.12494,82.4678% and 84.9668% and 84.4982% and 89.3401%
same,% activity RS4;11,RS4;11 cells; log[compound] -6.42597,93.2448% and 101.679% and 103.397%
same,GI50,"RS4;11 cells; Homo sapiens, 168 h, RS4;11 (MLL1-r)",3.4 ± 0.1 µM
same,GI50,"SET2 cells; Homo sapiens, SET-2, 168 h, SET2 (non MLL1-r), MTT, 7 days",> 12 µM
same,% activity SET2,SET2 cells; [5],96.0299% and 95.2049% and 87.6257% and 88.1928%
same,% activity SET2,SET2 cells; [6],99.0204% and 97.9376% and 92.5754% and 93.5035%
same,% activity SET2,SET2 cells; [7],97.5767% and 104.589% and 99.7938% and 98.0407%
same,% activity SET2,SET2 cells; [8],91.6473% and 94.4831% and 88.9662% and 87.9866%
same,% activity SET2,SET2 cells; [9],83.7071% and 89.6365% and 81.1807% and 83.8618%
same,% activity SET2,SET2 cells; [10],83.5525% and 88.76% and 84.5321% and 85.1508%
same,% activity SET2,SET2 cells; [11],86.1304% and 85.9242% and 90.513% and 87.1101%
same,effect on proliferation of SET2 cells,SET2 cells; [12],no or limited effects at 10 µM or higher concentrations
same,GI50,"KOPN8 cells [3]; Homo sapiens, KOPN-8, 168 h, KOPN8 (MLL1-r)",2.9 ± 0.3 µM
same,% activity KOPN-8,KOPN8 cells [3]; log[compound] -4.92082,5.251% and 4.98% (2×) and 5.115%
same,% activity KOPN-8,KOPN8 cells [3]; log[compound] -5.22185,1.863% and 1.728% and 2.134%
same,% activity KOPN-8,KOPN8 cells [3]; log[compound] -5.52288,50.2371% and 54.1667% and 51.0501% and 53.0827%
same,% activity KOPN-8,KOPN8 cells [3]; log[compound] -5.82391,80.5894% and 71.1043% and 76.5244% and 75.7114%
same,% activity KOPN-8,KOPN8 cells [3]; log[compound] -6.12494,90.8875% and 88.855% and 90.6165% and 83.977%
same,% activity KOPN-8,KOPN8 cells [3]; log[compound] -6.42597,97.1206% and 99.8306% and 104.844% and 96.4431%
same,% activity KOPN-8,KOPN8 cells [3]; log[compound] -6.727,96.0366% and 101.457% and 104.844% and 97.6626%
same,GI50,"K562 cells; Homo sapiens, 168 h, K562 (non MLL1-r), MTT, 7 days",~10 µM
same,% activity K562,K562 cells; [5],34.51% and 35.23% and 31.55% and 35.55%
same,% activity K562,K562 cells; [6],83.83% and 82.23% and 83.51% and 86.83%
same,% activity K562,K562 cells; [7],95.95% and 103.51% and 103.55% and 93.67%
same,% activity K562,K562 cells; [8],96.63% and 103.59% and 103.23% and 96.55%
same,% activity K562,K562 cells; [9],84.15% and 92.83% and 97.87% and 96.55%
same,% activity K562,K562 cells; [10],86.31% and 85.15% and 89.55% and 92.55%
same,% activity K562,K562 cells; [11],85.67% and 82.35% and 87.23% and 83.91%
same,effect on growth/proliferation of K562 cells,K562 cells; [12],no or limited effects at 10 µM or higher concentrations
same,KOPN8 % Annexin V/PI+ cells,KOPN8 cells [4]; 1 uM,4.46% and 5.06% and 4.65%
same,KOPN8 % Annexin V/PI+ cells,KOPN8 cells [4]; 2 uM,6.92% and 8.33% and 6.49%
same,KOPN8 % Annexin V/PI+ cells,KOPN8 cells [4]; 3 uM,6.23% and 7.5% and 8.51%
same,KOPN8 % Annexin V/PI+ cells,KOPN8 cells [4]; 4 uM,31.1% and 33%

# Reference: PMC8121805, “Discovery of first-in-class inhibitors of ASH1L histone methyltransferase with anti-leukemic activity” (Nature Communications, 2021)
